{"source": "patent US11419902B2", "about": "“Compositions comprising bacterial strains” (4D Pharma Research Limited, priority 2018, dated 2022)", "test_system": "TLR-4, CD11b", "experiment": "Gene expression of inflammatory markers in brain tissue (qPCR)", "type": "in vivo, BALBc mice", "settings": "oral gavage 1×10^9 CFU for 6 consecutive days", "experimental": "BALBc (Envigo, UK) adult male mice were group housed under a 12 h light-dark cycle; standard rodent chow and water were available ad libitum. All experiments were performed in accordance with European guidelines following approval by University College Cork Animal Ethics Experimentation Committee. Animals were 8 weeks old at the start of the experiment.\nAnimals were allowed to habituate to their holding room for one week after arrival into the animal unit. They receive oral gavage (200 μL dose) of live biotherapeutics at a dose of 1×10^9 CFU for 6 consecutive days between 15:00 and 17:00. On day 7, the animals are decapitated, and tissues are harvested for experimentation. […]\nTotal RNA was extracted using the mirVana™ miRNA Isolation kit (Ambion/Llife technologies, Paisley, UK) and DNase treated (Turbo DNA-free, Ambion/life technologies) according to the manufacturers recommendations. RNA was quantified using NanoDrop™ spectrophotometer (Thermo Fisher Scientific Inc., Wilmington, Del., USA) according to the manufacturer's instructions. RNA quality was assessed using the Agilent Bioanalyzer (Agilent, Stockport, UK) according to the manufacturer's procedure and an RNA integrity number (RIN) was calculated. […] Quantitative PCR was carried out using probes (6 carboxy fluorescein—FAM) designed by Applied Biosystems to mouse specific targeted genes, while using β-actin as an endogenous control. […]"}
{"substance": "Megasphaera massiliensis MRx0029", "values": [{"measurement": "expression of CD11b in the amygdala", "result": "increased expression of CD11b"}, {"measurement": "expression of TLR-4 in the amygdala", "result": "significantly increased the expression of TLR-4"}]}
